In brackets after ≈: the same amount, converted by molar mass.
Test: physchem
Settings: 25 °C, water

Compound | solubility
CC(C)CCC[C@@H](C)[C@H]1CC[C@H]2[C@@H]3CC=C4C[C@@H](O)CC[C@]4(C)[C@H]3CC[C@]12C [cholesterol] | 0.1 µg/mL (≈ 0.259 µM)
CSc1ccc(-c2nn(Cc3ccccc3)c(=O)cc2-c2ccc(Cl)cc2)cc1 [Compound A, 2-benzyl-5-(4-chlorophenyl)-6-[4-(methylthio)phenyl]-2H-pyridazin-3-one] | 0.01 µg/mL (≈ 0.0239 µM)
CCCCC(=O)O[C@]1(C(=O)COC(C)=O)CC[C@H]2[C@@H]3CCC4=CC(=O)C=C[C@]4(C)[C@H]3[C@@H](O)C[C@@]21C [prednisolone valerate acetate] | 4 µg/mL
O=C(Nc1cccc2c(=O)cc(-c3nnn[nH]3)oc12)c1ccc(OCCCCc2ccccc2)cc1 [pranlukast] | 0.9 µg/mL (≈ 1.87 µM)

From patent US8105630B2, “Composition containing medicine extremely slightly soluble in water being excellent in eluting property and method for preparation thereof” (Kowa Co., Ltd., priority 2003, dated 2012)
